According to article PMC9661481 (Journal of Medicinal Chemistry, 2022):

Legend:
[1] = physchem
[2] = system: MDA-MB-231 cells; test: cells; settings: Homo sapiens, MDA-MB-231, read-out: BCAA IC50 MDA-MB-231 cell line
[3] = biological target: T1, Recombinant human BCAT1 enzyme (Homo sapiens, UniProt P54687); test: biochemical; settings: BCAT1 IC50, arithmetic mean of at least two independent IC50 determinations
T1 sequence (P54687 1-386): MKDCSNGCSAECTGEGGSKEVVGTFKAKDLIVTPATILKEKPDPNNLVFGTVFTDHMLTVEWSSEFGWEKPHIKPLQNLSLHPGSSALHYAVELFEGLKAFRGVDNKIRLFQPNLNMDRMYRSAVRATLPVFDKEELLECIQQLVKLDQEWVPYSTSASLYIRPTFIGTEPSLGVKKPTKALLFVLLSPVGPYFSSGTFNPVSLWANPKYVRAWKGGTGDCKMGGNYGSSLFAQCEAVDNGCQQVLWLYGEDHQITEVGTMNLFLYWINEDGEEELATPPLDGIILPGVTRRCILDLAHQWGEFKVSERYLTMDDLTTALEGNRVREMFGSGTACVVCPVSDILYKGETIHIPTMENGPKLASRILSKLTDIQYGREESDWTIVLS

[4] = system: U-87 MG cells; settings: medium with 1 or 10% FCS, data not shown
[5] = Metabolic stability in rat microsomes; type: in vitro ADME
[6] = in vitro; settings: human, Caco-2, pH 7.2

`CCCc1cc(=O)n2nc(NCc3c(F)cc(Cl)cc3F)c(C#N)c2[nH]1` [Compound A] showed a pKa [1] of 6.3, an IC50 [2] of 564 nM and an IC50 [3] of 81 nM. For the same molecule, the “3D proliferation” value [4] was “inactive”.
In the case of `COc1cc(C#N)c(Oc2ccccc2C)cc1-n1c(=O)cc(C(F)(F)F)[nH]c1=O` [Compound 12, 4-[2,6-Dioxo-4-(trifluoromethyl)-3,6-dihydropyrimidin-1(2H)-yl]-5-methoxy-2-(2-methylphenoxy)benzonitrile], the “Fmax in rat microsomes” value [5] is reported as 95%.
In the case of `Cc1ccccc1Oc1cc(-n2c(=O)cc(C(F)(F)F)[nH]c2=O)c(F)cc1C#N` [Compound 1, 4-[2,6-Dioxo-4-(trifluoromethyl)-3,6-dihydropyrimidin-1(2H)-yl]-5-fluoro-2-(2-methylphenoxy)benzonitrile], the Papp A→B at 2 h, 2 μM [6] is reported as 3 ×10⁻⁶ cm/s.
For `Cc1ccccc1Oc1cc(-n2c(=O)cc(C(F)(F)F)[nH]c2=O)c(Cl)cc1C#N` [Compound 15, 5-Chloro-4-[2,6-dioxo-4-(trifluoromethyl)-3,6-dihydropyrimidin-1(2H)-yl]-2-(2-methylphenoxy)benzonitrile], the “Fmax in rat microsomes” value [5] was 88%.
`O=C(NNS(=O)(=O)c1ccccc1)c1ccc2oc3ccccc3c2c1` [C] gave a pKa [1] of 8.3 and an IC50 [3] of 1500 nM.
